In patent US20230365566A1, “HETEROCYCLIC AMIDES AND THEIR USE FOR MODULATING SPLICING” (REMIX THERAPEUTICS INC., priority 2020, published 2023) one finds AC50 and IC50 data, which are given here for twelve compounds.

Format in all cases: cell-based
Test [1] concerns HTT mRNA alternative junction (AJ). Nature of the test: Splicing RT-qPCR assay, increase of HTT alternative junction (AJ) mRNA. The settings on record: A673 or K562 cells, 24 hours compound treatment, concentration having 50% response in AJ increase. In short, it runs like this: (§1)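 A673 (DMEM, 10% FBS) or K562 (IMDM, 10% FBS) cells exposed 24 h at 37 °C to an 11-point 3-fold series, top dose 10 uM final, DMSO ≤0.25%. Lysates assayed by RT-qPCR for HTT CJ and AJ, normalized to GAPDH, GUSB or PPIA and DMSO control via 2^(−ΔΔCt).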

Test [2] deals with Target C CJ mRNA. Kind of test: Gene panel canonical junction qPCR assay, Target C. The settings on record: protocol of Example 42, read-out: Target C IC50 (decrease in CJ mRNA levels). Summed up: (§2)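 A673 or K562 cells treated 24 h at 37° C with 11-point 3-fold dilutions (top 10 uM, DMSO ≤0.25%). Canonical junction mRNA quantified by RT-qPCR, normalized to GAPDH, GUSB or PPIA and DMSO control (2^(−ΔΔCt)). 4-parameter logistic fit gives IC50 for CJ decrease.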
(Quantitative PCR measures a nucleic acid by following its amplification.)

In test [3] the test system is SMN2 CJ mRNA. Nature of the test: Gene panel canonical junction qPCR assay, SMN2. The settings on record: protocol of Example 42, read-out: SMN2 IC50 (decrease in CJ mRNA levels). Summed up: as §2
Test [4] relates to HTT CJ mRNA. Nature of the test: Gene panel canonical junction qPCR assay, HTT. The settings on record: protocol of Example 42, read-out: HTT IC50 (decrease in CJ mRNA levels). In short, it runs like this:
as §2

Test [5] relates to HTT mRNA canonical junction (CJ). Nature of the test: Splicing RT-qPCR assay, decrease of HTT canonical junction (CJ) mRNA. The settings on record: A673 or K562 cells, 24 hours compound treatment, concentration having 50% response in CJ decrease. In short, it runs like this:
as §1

Broadly, the AC50 is the concentration giving half of the maximal activity seen. As a reminder, the IC50 is the concentration at which inhibition is half-maximal. Regarding `Cc1cn2cc(NC(=O)c3ccc(N4CCNCC4)c4cn(C)nc34)cc(Cl)c2n1` [Compound 269], the AC50 in test [1] and in test [5] was 100 to 1000 nM in each case. In addition, the IC50 is 1000 to 10000 nM in test [2], less than 100 nM in test [3] and 100 to 1000 nM in test [4].

As for `Cn1cc2c(N3CCNCC3)ccc(C(=O)Nc3cn[nH]c3)c2n1` [Compound 270], the AC50 in test [1] and in test [5] was greater than 10000 nM in each case. Besides, the IC50 in test [2], in test [3] and in test [4] was greater than 10000 nM each time.

Regarding `Cc1cn2cc(NC(=O)c3ccc(C4CC(C)(C)NC(C)(C)C4)c4cc(C)oc34)cc(F)c2n1` [Compound 271, N-[8-fluoro-2-methylimidazo[1,2-a]pyridin-6-yl]-2-methyl-4-(2,2,6,6-tetramethylpiperidin-4-yl)-1-benzofuran-7-carboxamide], the AC50 in test [1] and in test [5] was greater than 10000 nM throughout. The IC50 in test [2] was greater than 10000 nM; in test [3], 100 to 1000 nM; in test [4], greater than 10000 nM.

On to `Cc1cn2cc(NC(=O)c3ccc(N4CCC(N5CCCC5)C4)c4cn(C)nc34)cc(F)c2n1` (stereo not drawn) [Compound 272], for which the AC50 in test [1] and in test [5] was 100 to 1000 nM throughout. Further, the figures for the IC50 in test [2], in test [3] and in test [4] were 100 to 1000 nM, less than 100 nM and 100 to 1000 nM, respectively.

`Cc1cn2cc(NC(=O)c3ccc(N4CCNCC4)c4cn(C)nc34)nc2c(C)n1` [Compound 273]: the AC50 in test [1] and in test [5] was greater than 10000 nM in each case. In addition, the IC50 was greater than 10000 nM in test [2], less than 100 nM in test [3] and greater than 10000 nM in test [4].

On to `Cc1cn2cc(NC(=O)c3ccc(N4CC(C)(C)NC(C)(C)C4)c4cn(C)nc34)cc(F)c2n1` [Compound 274], for which the half-maximal activity concentration (AC50) in test [1] was greater than 10000 nM; in test [5], 1000 to 10000 nM. Further, the IC50 is greater than 10000 nM in test [2], less than 100 nM in test [3] and 1000 to 10000 nM in test [4].

On to `Cc1cn2cc(NC(=O)c3ccc(N4CCNCC4)c4cn(C)nc34)cc(C(F)(F)F)c2n1` [Compound 275], for which the AC50 in test [1] and in test [5] was 1000 to 10000 nM each time. The IC50 was greater than 10000 nM in test [2], less than 100 nM in test [3] and 1000 to 10000 nM in test [4].

On to `Cc1cn2cc(NC(=O)c3ccc(N4CCNC(C)C4)c4cn(C)nc34)cc(Cl)c2n1` (stereo not drawn) [Compound 277, N-{8-chloro-2-methylimidazo[1,2-a]pyridine-6-yl}-2-methyl-4-(3-methylpiperazin-1-yl)indazole-7-carboxamide], for which the AC50 in test [1] and in test [5] was 100 to 1000 nM in each case. Besides, the IC50 was 1000 to 10000 nM in test [2], less than 100 nM in test [3] and 100 to 1000 nM in test [4].

As for `Cc1cn2cc(NC(=O)c3ccc(N4CCC(N(C)C)C4)c4cn(C)nc34)cc(Cl)c2n1` (stereo not drawn) [Compound 278, N-{8-chloro-2-methylimidazo[1,2-a]pyridin-6-yl}-4-[3-(dimethylamino)pyrrolidin-1-yl]-2-methylindazole-7-carboxamide], the AC50 in test [1] and in test [5] was 1000 to 10000 nM throughout. In addition, the values for the IC50 in test [2], in test [3] and in test [4] were 1000 to 10000 nM, less than 100 nM and 1000 to 10000 nM, respectively.

As to `Cc1cn2cc(NC(=O)c3ccc(N4C[C@H]5CC[C@@H](C4)N5)c4cn(C)nc34)cc(Cl)c2n1` [Compound 279, N-{8-chloro-2-methylimidazo[1,2-a]pyridin-6-yl}-4-[(1R,5S)-3,8-diazabicyclo[3.2.1]octan-3-yl]-2-methylindazole-7-carboxamide], the AC50 in test [1] and in test [5] was 1000 to 10000 nM each time. For the same compound, the IC50 in test [2] was greater than 10000 nM; in test [3], less than 100 nM; in test [4], 1000 to 10000 nM.

In the case of `Cc1cn2cc(-c3ccc(C(=O)NC4CCNCC4)c4nn(C)cc34)cc(F)c2n1` [Compound 280, 4-{8-fluoro-2-methylimidazo[1,2-a]pyridin-6-yl}-2-methyl-N-(piperidin-4-yl)indazole-7-carboxamide], the AC50 in test [1] and in test [5] was 1000 to 10000 nM each time. Besides, the IC50 in test [2] is greater than 10000 nM; in test [3] it was 1000 to 10000 nM; in test [4] it was 1000 to 10000 nM.

With `Cc1cn2nc(-c3ccc(C(=O)NC4CCNCC4)c4nn(C)cc34)cc(C)c2n1` [Compound 281, 4-{2,8-dimethylimidazo[1,2-b]pyridazin-6-yl}-2-methyl-N-(piperidin-4-yl)indazole-7-carboxamide], the half-maximal activity concentration (AC50) in test [1] and in test [5] was 1000 to 10000 nM each time. For the same compound, the IC50 in test [2] lay in the range of 1000 to 10000 nM; in test [3], 100 to 1000 nM; in test [4], 1000 to 10000 nM.
